Values of other authors in patent US20040259736A1, “Biodegradable solid preparation of a phytopathologicalagent with delayed active substance release” (priority 2001, published 2004).
≈ marks a conversion by molar mass, not a printed value.

| SMILES | solubility in water [µg/mL] | solubility in water (in words) |
| --- | --- | --- |
| CN/C(=N\[N+](=O)[O-])NCc1cnc(Cl)s1 [Clothianidin, (E)-1-(2-chlorothiazol-5-ylmethyl)-3-methyl-2-nitroguanidine] | 270 (≈ 1080 µM) |  |
| CNC(=O)C(=NOC)c1ccccc1CO/N=C(\C)C(=NOC)/C(C)=N/OC [II-4, N-Methyl-2-(methoxyimino)-2-{2-[(3E,6E)-5-(methoxyimino)-4,6-dimethyl-2,8-dioxa-3,7-diazanona-3,6-dien-1-yl]phenyl}-acetamide] | 80 (≈ 204 µM) |  |
| CNC(=N[N+](=O)[O-])NCC1CCOC1 (stereo not shown) [MTI-446] | 54000 (≈ 267000 µM) | freely soluble in water |
